Experimental data published in ChEMBL document CHEMBL1201862, “PubChem BioAssay data set” (2004).
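Compound exposure: 48 hours, 5 concentrations, 96-well plates. GI50 is the concentration that inhibits growth by half.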 Activity calls are given as the source filed them. Cut-off read from the data, not from the text of the source: active = GI50 up to about 1.1 µM and inactive = higher. Where a SMILES comes first, the peptide text is derived from it. Non-standard residues stand in square brackets, D forms with d. Residues, ends and D or L forms follow the SMILES beside them. The star is where a group is joined. *: point of attachment. Benzoyl(4-OMe) = COc1ccc(C(=O)*)cc1; 2Thi = N[CH](Cc1cccs1)C(=O)O; Cbz = O=C(OCc1ccccc1)*

Tests used:
Assay in all cases: NCI anticancer screen, dose series, 48 h
EKVX = test system: EKVX
HCT-116 = test system: HCT-116
SK-MEL-5 = test system: SK-MEL-5
COLO 205 = test system: COLO 205
NCI/ADR-RES = test system: NCI/ADR-RES
NCI-H460 = test system: NCI-H460
HOP-92 = test system: HOP-92
MDA-N = test system: MDA-N
RXF 393 = test system: RXF 393
HCT-15 = test system: HCT-15
HOP-62 = test system: HOP-62
SW-620 = test system: SW-620
DU-145 = test system: DU-145
OVCAR-5 = test system: OVCAR-5
SK-OV-3 = test system: SK-OV-3
KM12 = test system: KM12
Malme-3M = test system: Malme-3M
NCI-H23 = test system: NCI-H23
NCI-H522 = test system: NCI-H522
OVCAR-4 = test system: OVCAR-4

| Compound | GI50 (EKVX) | GI50 (HCT-116) | GI50 (SK-MEL-5) | GI50 (COLO 205) | GI50 (NCI/ADR-RES) | GI50 (NCI-H460) | GI50 (HOP-92) | GI50 (MDA-N) | GI50 (RXF 393) | GI50 (HCT-15) [µM] | GI50 (HOP-62) | GI50 (SW-620) | GI50 (DU-145) | GI50 (OVCAR-5) | GI50 (SK-OV-3) | GI50 (KM12) | GI50 (Malme-3M) | GI50 (NCI-H23) | GI50 (NCI-H522) | GI50 (OVCAR-4) |
| --- | --- | --- | --- | --- | --- | --- | --- | --- | --- | --- | --- | --- | --- | --- | --- | --- | --- | --- | --- | --- |
| COc1cc(COC(=O)N2CC=CC2C(=O)O)c([N+](=O)[O-])cc1OC (stereo unspecified) | > 100 µM (inactive) | > 100 µM (inactive) | > 100 µM (inactive) | > 100 µM (inactive) | > 100 µM (inactive) | > 100 µM (inactive) | > 100 µM (inactive) | > 100 µM (inactive) | > 100 µM (inactive) | > 100 | > 100 µM (inactive) | > 100 µM (inactive) | > 100 µM (inactive) | > 100 µM (inactive) | > 100 µM (inactive) | > 100 µM (inactive) | > 100 µM (inactive) | > 100 µM (inactive) | – | – |
| Nc1ncnc2nc(N3CCN(CCO)CC3)[nH]c12 | > 100 µM (inactive) | > 100 µM (inactive) | > 100 µM (inactive) | > 100 µM (inactive) | > 100 µM (inactive) | > 100 µM (inactive) | – | > 100 µM (inactive) | > 100 µM (inactive) | > 100 | > 100 µM (inactive) | > 100 µM (inactive) | > 100 µM (inactive) | > 100 µM (inactive) | > 100 µM (inactive) | > 100 µM (inactive) | > 100 µM (inactive) | > 100 µM (inactive) | > 100 µM (inactive) | > 100 µM (inactive) |
| CC(=O)OC12c3ccccc3C(c3ccccc31)C1C(=O)N(c3ccccc3O)C(=O)C12 (stereo unspecified) | > 100 µM (inactive) | > 100 µM (inactive) | > 100 µM (inactive) | > 100 µM (inactive) | > 100 µM (inactive) | > 100 µM (inactive) | – | > 100 µM (inactive) | > 100 µM (inactive) | > 100 | 96.4 µM (inactive) | > 100 µM (inactive) | > 100 µM (inactive) | > 100 µM (inactive) | > 100 µM (inactive) | 92.7 µM (inactive) | 90.4 µM (inactive) | 41.6 µM (inactive) | – | > 100 µM (inactive) |
| CCOC(=O)[C@@H]1OC(c2ccccc2)O[C@H]1C(=O)OCC | > 100 µM (inactive) | > 100 µM (inactive) | > 100 µM (inactive) | > 100 µM (inactive) | > 100 µM (inactive) | – | > 100 µM (inactive) | > 100 µM (inactive) | – | > 100 | > 100 µM (inactive) | > 100 µM (inactive) | > 100 µM (inactive) | > 100 µM (inactive) | > 100 µM (inactive) | > 100 µM (inactive) | > 100 µM (inactive) | > 100 µM (inactive) | – | > 100 µM (inactive) |
| CC(C)(C)c1cc(/C=C/C(=O)CC(=O)/C=C/c2cc(C(C)(C)C)c(O)c(C(C)(C)C)c2)cc(C(C)(C)C)c1O | > 50 µM (inactive) | > 50 µM (inactive) | > 50 µM (inactive) | > 50 µM (inactive) | > 50 µM (inactive) | > 50 µM (inactive) | – | > 50 µM (inactive) | > 50 µM (inactive) | > 50 | > 50 µM (inactive) | > 50 µM (inactive) | > 50 µM (inactive) | > 50 µM (inactive) | > 50 µM (inactive) | 28.4 µM (inactive) | – | > 50 µM (inactive) | > 50 µM (inactive) | > 50 µM (inactive) |
| N#Cc1c(-c2ccccc2)c(C#N)c(=S)n(C2OCC(O)C(O)C2O)c1N (stereo unspecified) | – | – | > 100 µM (inactive) | – | > 100 µM (inactive) | > 100 µM (inactive) | – | > 100 µM (inactive) | – | > 100 | > 100 µM (inactive) | > 100 µM (inactive) | > 100 µM (inactive) | > 100 µM (inactive) | > 100 µM (inactive) | > 100 µM (inactive) | > 100 µM (inactive) | > 100 µM (inactive) | > 100 µM (inactive) | – |
| CCCCCCCCCCCC(=O)c1c(O)cc(C)oc1=O | 38.5 µM (inactive) | 45.7 µM (inactive) | 29 µM (inactive) | 26.5 µM (inactive) | 33.4 µM (inactive) | 57.4 µM (inactive) | – | 34.6 µM (inactive) | – | 41.7 | 60 µM (inactive) | 41.1 µM (inactive) | 48.3 µM (inactive) | 92.7 µM (inactive) | 64.6 µM (inactive) | 44.9 µM (inactive) | 45 µM (inactive) | 34.8 µM (inactive) | 42.4 µM (inactive) | – |
| O=C(NNC(=O)c1ccccc1O)c1cccc(Br)c1 | 23.6 µM (inactive) | 24.1 µM (inactive) | 24.2 µM (inactive) | 38.7 µM (inactive) | 21.1 µM (inactive) | 8.43 µM (inactive) | – | > 57.5 µM (inactive) | > 100 µM (inactive) | 6.85 | 56.8 µM (inactive) | 35 µM (inactive) | 30.2 µM (inactive) | > 100 µM (inactive) | 54.1 µM (inactive) | > 42.6 µM (inactive) | 37.2 µM (inactive) | > 100 µM (inactive) | 6.25 µM (inactive) | 45.5 µM (inactive) |
| N#CC(=S)Nc1ccc(Cl)c(Cl)c1 | 22.9 µM (inactive) | 28.8 µM (inactive) | 22.2 µM (inactive) | 20.6 µM (inactive) | 26.3 µM (inactive) | – | 3.1 µM (inactive) | 32.7 µM (inactive) | 25.4 µM (inactive) | 27.2 | 44 µM (inactive) | 27 µM (inactive) | 45.6 µM (inactive) | 16.4 µM (inactive) | 20 µM (inactive) | 26.9 µM (inactive) | 28.1 µM (inactive) | 31.9 µM (inactive) | – | – |
| CCCc1cc(=O)oc2c3c(c4c(c12)OC(C)(C)C=C4)O[C@@H](C)[C@H](C)C3=O | 12.2 µM (inactive) | 10.4 µM (inactive) | 15.8 µM (inactive) | 18.6 µM (inactive) | 12.5 µM (inactive) | 15.8 µM (inactive) | – | 17.3 µM (inactive) | > 10 µM (inactive) | 15 | 18.5 µM (inactive) | 13.4 µM (inactive) | 19.5 µM (inactive) | 17.9 µM (inactive) | – | 13.6 µM (inactive) | 19.5 µM (inactive) | 17 µM (inactive) | 13.6 µM (inactive) | – |
| COc1ccc(C2C3=C(COC3=O)Oc3cc4c(cc32)OCO4)c(OC)c1 (stereo unspecified) | 48.5 µM (inactive) | 6.24 µM (inactive) | 10.7 µM (inactive) | 7 µM (inactive) | 10 µM (inactive) | 17.4 µM (inactive) | – | 2.09 µM (inactive) | 16.1 µM (inactive) | 5.73 | 30.3 µM (inactive) | 5.81 µM (inactive) | 26.3 µM (inactive) | 43.5 µM (inactive) | 17.3 µM (inactive) | 5.19 µM (inactive) | 14.9 µM (inactive) | 19 µM (inactive) | – | 8.11 µM (inactive) |
| CCOC(=O)CCC(NC(=O)CNC(=O)CNC(=O)C(CCC(=O)OCC)NC(=O)C(CCC(=O)OCC)NC(=O)C(CCC(=O)OCC)NC(=O)OCc1ccccc1)C(=O)NC(CCC(=O)OCC)C(=O)NC(CCC(=O)OCC)C(=O)OCC (stereo unspecified) (Cbz-E(OEt)E(OEt)E(OEt)GGE(OEt)E(OEt)E(OEt)-OEt; configuration not given here) | > 75 µM (inactive) | > 75 µM (inactive) | > 75 µM (inactive) | > 75 µM (inactive) | > 75 µM (inactive) | > 75 µM (inactive) | – | > 75 µM (inactive) | > 75 µM (inactive) | > 75 | – | > 75 µM (inactive) | > 75 µM (inactive) | > 75 µM (inactive) | > 75 µM (inactive) | > 75 µM (inactive) | > 75 µM (inactive) | > 75 µM (inactive) | > 75 µM (inactive) | > 75 µM (inactive) |
| CSc1nc(Nc2ccccc2Cl)c2c(N)nn(C)c2n1 | 24.4 µM (inactive) | > 100 µM (inactive) | > 100 µM (inactive) | > 100 µM (inactive) | 69.5 µM (inactive) | 9.51 µM (inactive) | – | > 100 µM (inactive) | 47.2 µM (inactive) | > 100 | 27 µM (inactive) | > 100 µM (inactive) | > 100 µM (inactive) | > 100 µM (inactive) | > 100 µM (inactive) | > 100 µM (inactive) | > 100 µM (inactive) | > 100 µM (inactive) | 75.2 µM (inactive) | > 100 µM (inactive) |
| CCC(C)C(NC(=O)C(Cc1cccs1)NC(=O)C(CC(C)C)NC(=O)C(CC(C)C)NC(=O)C(CCCCN)NC(=O)C(CCCNC(=N)N)NC(=O)c1ccc(OC)cc1)C(=O)NC(CC(C)C)C(N)=O (stereo unspecified) ({Benzoyl(4-OMe)}-RKLL[2Thi]IL-NH2; configuration not given here) | > 100 µM (inactive) | > 100 µM (inactive) | > 100 µM (inactive) | > 100 µM (inactive) | > 100 µM (inactive) | > 100 µM (inactive) | – | > 100 µM (inactive) | > 100 µM (inactive) | > 100 | > 100 µM (inactive) | > 100 µM (inactive) | > 100 µM (inactive) | > 100 µM (inactive) | > 100 µM (inactive) | > 100 µM (inactive) | > 100 µM (inactive) | > 100 µM (inactive) | > 100 µM (inactive) | > 100 µM (inactive) |
| NC(=O)c1ccc(NS(=O)(=O)c2ccc(N)cc2)nc1 | > 100 µM (inactive) | > 100 µM (inactive) | > 100 µM (inactive) | > 100 µM (inactive) | > 100 µM (inactive) | > 100 µM (inactive) | > 100 µM (inactive) | > 100 µM (inactive) | – | > 100 | > 100 µM (inactive) | > 100 µM (inactive) | > 100 µM (inactive) | > 100 µM (inactive) | > 100 µM (inactive) | > 100 µM (inactive) | > 100 µM (inactive) | > 100 µM (inactive) | – | > 100 µM (inactive) |
